From US20250387388A1, “COMPOUND AS TRK INHIBITOR AND/OR RET INHIBITOR AND USE THEREOF” (Medinno Pharmaceutical Technology (Zhuhai) Co., Ltd., priority 2022, published 2025) come the findings set out here.

The structures appear in SMILES notation.

The subject of experiment [1] is phenol-induced cervicitis model in rats. Description: Phenol-induced cervicitis model in rats. The class given is in vivo, SD rats. Here is the method:
• Blank Control Group (untreated) (N=5+2 rats) • Cervicitis Model Group (vehicle treatment: 20% DMA+65% PEG400+15% H2O) (N=8+2 rats) • Cervicitis Model+Positive Control Drug Group (Jieeryin lotion (1:5 dilution), 2 times/day, for 7 consecutive days) (N=8 rats) • Cervicitis Model+Low-Dose MDI-1228 Compound Lotion Group (dose: 3 mg/kg/time, 2 times/day, for 7 consecutive days) (N=8 rats) • Cervicitis Model+Medium-Dose MDI-1228 Compound Lotion Group (dose: 10 mg/kg/time, 2 times/day, for 7 consecutive days) (N=8 rats) • Cervicitis Model+High-Dose MDI-1228 Compound Lotion Group (dose: 30 mg/kg/time, 2 times/day, for 7 consecutive days) (N=8 animals) • Experimental Environment: Temperature 20° C.-26° C., humidity 40%-70%.
SD rats were acclimated for one week. After anesthesia with isoflurane, the rats were fixed in a supine position on the operation table with their limbs secured. A 1 mL syringe with a blunt needle was inserted approximately 1 cm into the rat's vagina, and 0.1 mL of 25% phenol slurry was slowly injected. The vaginal opening was immediately plugged with a sterile cotton ball, and the rat was kept in a head-down and tail-high position for 20 minutes. The injection was performed every 2 days, for a total of 3 times. The vaginal opening of the rats was observed, and the model was considered successful if there was white secretion, vaginal congestion, and swelling.
The successfully modelled rats were randomly divided into 6 groups. Animals in each group were treated according to their group assignment. The blank group (untreated) received no treatment. The positive control group was administrated with Jieeryin lotion (1:5 dilution) for vaginal irrigation twice a day, for 7 consecutive days. The low, medium, and high-dose MDI-1228 compound lotions were used for vaginal irrigation twice a day, for 7 consecutive days. The model group was given an equal amount of vehicle treatment, with the same way and duration as the test drug groups.
Clinical Symptoms Observation: The general condition of the rats (activity, diet, mental state) was continuously observed, and the rats were weighted before and after administration. Daily observations and recordings were made of changes in the local area and secretions of the rat's vulva, whether the vaginal opening is dry, and whether there is congestion, swelling in the vulva and vaginal mucosa, and whether there is vaginal fluid blood. Scoring was conducted according to the following table.
Organ Weight and Organ Index Calculation: After the last administration, the rats were sacrificed the next day, and the uterus was removed, with fat tissue and mesentery dissected away, and the weight of the cervix (from the vaginal opening to the bifurcation of the double uterus) and the liver and spleen were measured to calculate the organ index.
Pathological Detection: ELISA detection for serum markers IL-4, IL-6, IL-1β, TNF-α; ELISA detection for plasma CP; biochemical detection for MDA and T-SOD in cervical tissue.
HE Staining: Tissue samples from animal vaginal, cervical, and uterine were excised, fixed in 4% paraformaldehyde, dehydrated, embedded in paraffin, and sectioned and HE stained for observation of histopathological morphology changes. The reagents and instruments required for HE staining included: Hematoxylin staining solution (AR 11800-1, BOSTER); Eosin staining solution (ARl1800-2, BOSTER); Ultra-clean advanced mounting medium (YZB, BASO); Scott's blueing solution (G1865, Solarbio), etc. Medication refrigerator (BYC-310, Shandong Bokai Biotech); Microscope (CX41 OLYMPUS); Microtome (BQ-318D, Berne); Electric heating blast drying oven (DHG-9070A. Hengke Scientific Instrument Co., Ltd.). The taken tissue was rinsed with running water for several hours, dehydrated through a series of ethanol solutions (70%, 80%, 90%), and then treated with a mixture of pure alcohol and xylene at a ratio of 1:1 for 15 minutes, followed by xylene I for 15 minutes and xylene II for 15 minutes (until transparent). […]

Another experiment has as its system adipocytes. The experiment is described as follows: Lipolysis in vitro in adipocytes. It is filed as cell-based, C57BL/6 mouse. The conditions noted are these: 5 μM. Here is the method:
Newly extracted neonatal C57BL/6 mouse skin fibroblasts (specific operational steps can be found in the literature: Cell Reports (2023)/doi: 10.1016/j.celrep.2023.112647) were plated and cultured in petri dishes until the cell density reached the highest and contact inhibition. Differentiation medium (DMEM+10% FBS+1× antibiotic; specific formula can be found in the literature: Cell Reports (2023)/doi: 10.1016/j.celrep.2023.112647) was then added to induce the generation of new adipocytes. […] The control group received an equal volume of DMSO. The transformation of adipocytes was observed using a Leica inverted phase contrast microscope.

Setting [2] is: 30 mg/kg/time, 2 times/day, 7 days.
The mark [3] stands for this setting: MDI-1228 at various doses (3, 10, 30 mg/kg).

Consider `CCc1cc(O)c(F)cc1-c1ccc2c(-c3nc4c([nH]3)CN(C(=O)N3CC[C@H](O)C3)C4)n[nH]c2c1` [MDI-1228, (S)-(2-(6-(2-ethyl-5-fluoro-4-hydroxyphenyl)-1H-indazol-3-yl)-4,6-dihydropyrrolo[3,4-d]imidazol-5-(1H)-yl)(3-hydroxylpyrrolidin-1-yl)ketone], for which, in experiment [1] (3 mg/kg/time, 2 times/day, 7 days), the “Vaginal, cervical and uterine tissue HE staining” value was “still showed significant inflammatory cell infiltration in the entire tissue structure”. In experiment [1] (10 mg/kg/time, 2 times/day, 7 days), the “Vaginal, cervical and uterine tissue HE staining” value is recorded as “marked reduction in inflammatory cells”. Moreover, the “Comprehensive score of cervicitis” value in experiment [1] (30 mg/kg/time vaginal irrigation, 2 times/day, 7 days, vs. model group) is listed as “significantly reducing the comprehensive score of cervicitis”. Further, in experiment [1] (setting [2]), the Cervical index entry was “significantly reduced”; the “Reduction of area under the continuous scoring curve, edema score” value stood at 19.61%; the “Reduction of area under the continuous scoring curve, erythema score” value is 29.99%; the “Reduction of area under the continuous scoring curve, secretion score” value is on record as 21.05%. In addition, in experiment [1] (setting [2]), the “Reduction of area under the continuous scoring curve, vulvar inflammation score” value is listed as 23.42%; the “Vaginal, cervical and uterine tissue HE staining” value is given as “showing the best effect”. For the same molecule, in experiment [1] (setting [3]), the “Conditions of erythema, edema, and secretion” value was “can improve the conditions of erythema, edema, and secretion”; the “Levels of inflammatory factors” value is “decrease the levels of inflammatory factors IL-10, IL-4, IL-6, and TNF-α”. For the same molecule, the “Lipolysis of differentiated mature adipocytes (phase contrast images)” value in the experiment on adipocytes was “promotes the lipolysis of adipocytes into smaller lipid droplets”.
